This is an account of results in PMC9216541, “Design and synthesis of Nrf2-derived hydrocarbon stapled peptides for the disruption of protein-DNA-interactions” (PLoS ONE, 2022).

Where a SMILES comes first, the peptide text is derived from it. Bridges are numbered along the chain shown (N, C = ends). [ ]: non-standard residue; d: D form. The star is where a group is joined. FITC = O=C1OC2(c3ccc(O)cc3Oc3cc(O)ccc32)c2ccc(NC(=S)*)cc21; R8 = C=CCCCCCC[C@@](C)(N)C(=O)O; R5 = C=CCCC[C@@](C)(N)C(=O)O; S5 = C=CCCC[C@](C)(N)C(=O)O; GABA = NCCCC(=O)O

For series [1], the target named is 6FAM-labeled MARE23 sequence (Nrf2:sMaf binding dsDNA). The experiment in a line: Fluorescence polarization assay with 6FAM-labeled MARE23 dsDNA. As to conditions: FP, 10 nM 6FAM-MARE23 dsDNA, peptide 25 μM - 6.1 nM, 50 mM Tris/HCl pH 7.5, 100 mM NaCl, 60 min at room temperature; quadruplicates, three independent replicates, four parameter logistic fit. As to the method:
For DNA hybridization, equimolar amounts of fluorescein- or 6FAM-labeled sense and unlabeled antisense oligonucleotides were mixed in 1X annealing buffer (10 mM Tris pH 7.5, 100 mM NaCl, 1 mM EDTA) to yield a final concentration of 20 μM of dsDNA. Subsequently, mixtures were heated to 95°C for 10 min followed by cooling to 20°C at a rate of 1°C per minute. Afterwards, dsDNA probes were diluted to 10 nm in FP assay buffer (50 mM Tris/HCl pH 7.5, 100 mM NaCl, 2 mM MgCl2, 0.5 mM EDTA, 10 μg/mL BSA, 0.1 mM DTT, 0.01% Tween-20) and mixed with serial dilutions of peptides 1–6 (25 μM—6.1 nm), that were generated with the Echo 520 liquid handler (Labcyte Inc.), in a total volume of 10.2 μL per well in black 384-well small volume microplates (Greiner Bio-One). The microplates were shaken at 1500 rpm for 30 s, centrifuged at 200 x g for 60 s and subsequently incubated for 60 min in a humidified, dark chamber at room temperature. Finally, the fluorescence polarization was analyzed on an Infinite® M1000 microplate reader (Tecan) using the appropriate settings for fluorescein/6FAM, i.e. an excitation wavelength of 470 ± 2.5 nm and an emission wavelength of 520 ± 7.5 nm.
Each concentration was analyzed in quadruplicates and resulting mean fluorescence polarization and standard deviation was fit to a four parameter logistic model with Origin (OriginLab, Northampton, MA) using the following equation: y=A1−A2/1+x/x0^p+A2
Each experiment was performed in three independent replicates.
Figure S5. Fluorescence polarization binding studies of stapled peptides 1-6 towards target DNA sequence MARE23 (5’-[6FAM][…]-3’ and 5’-[…]-3’) (A, C) and control DNA sequence MARE23_scrambled (5’-[6FAM][…]-3’ and 5’-GAGTAA-TAGCTATGACGATATTCCG-3’) (B and D, respectively). The obtained polarization values were either baseline-corrected (A, B) or corrected for the changes in fluorescence intensity in the free/bound state of the fluorescently labeled dsDNA probes (C, D).^[1] The resulting dissociation constants are listed in the inset tables in the respective panels. […]
Background: In fluorescence polarisation assays a small probe gives low polarisation when free and higher when bound to something large.

Series [2] is described as follows: CD measurements, helical fraction from ellipticity at 222 nm. As to conditions: peptide 20 μM in water, calculated from [θ]obs at 222 nm by established methods (ref 30). Format: physicochemical. The procedure: CD measurements were carried out on a JASCO J-715 spectrometer using water as the solvent for all measurements. The peptides were solved in water to a concentration of 20 μM. The linear peptide 5 was used as a control compound. The helical fraction for peptides 1–5 was calculated from the observed ellipticity [θ]obs at 222 nm using established methods.

Series [3] has as its system dsDNA probe (MARE23, MARE23_scrambled, randomized sequence). The experiment in a line: Electrophoretic mobility shift assay. Conditions: 1 pmol dsDNA probe with excess of peptide, 30 min at room temperature, native 15% TBE polyacrylamide gel. The format is binding. As to the method: DNA hybridization was performed as described above. Afterwards, 1 pmol of the dsDNA probe was incubated with the respective excess of peptide in 1X assay buffer (10 mM Tris pH 7.5, 100 mM KCl, 2 mM MgCl2, 0.5 mM EDTA, 10 μg/mL BSA, 0.1 mM DTT, 2.5% glycerol) in a final volume of 10 μL and incubated for 30 min at room temperature. Prior to gel electrophoresis, samples were mixed with 2 μL of 6X loading buffer (60 mM Tris pH 7.5, 15% Ficoll 400) and the reaction mixtures were then loaded onto hand-cast, native 15% TBE polyacrylamide gels. Separation was performed for 45 min at a current of 20 mA per gel in a cold room at 4°C and the gels were analyzed on a Typhoon FLA 9500 laser scanner (GE Healthcare) using the 473 nm laser for excitation and a 510 nm long-pass filter (LPB (510LP)) for emission of fluorescein and FAM, respectively.
[picture] Figure S6. Electrophoretic mobility shift assays of peptides 4 and 5 with MARE23 (5’-[6FAM][…]-3’ and 5’-[…]-TTCCG-3’).
Figure S7. Electrophoretic mobility shift assays of peptides 4 and 5 with MARE23_scrambled (5’-[6FAM][…]-3’ and 5’-[…]-TTCCG-3’).
Figure S8. Electrophoretic mobility shift assays of peptides 4 and 5 with DNA with a randomized sequence (5’-[6FAM][…]-3’ and 5’-GAG-[…]-3’).
A general note: A gel shift assay detects complexes by their altered migration in electrophoresis.

For series [4], the system named is cellular DNA in fixed, permeabilized HeLa cells. The experiment in a line: Incubation with fixed, permeabilized HeLa cells, wide-field fluorescence microscopy. The format is cell-based. As to conditions: FITC-labeled peptide. The procedure:
(§1) HeLa cells (ATCC CCL-2) were cultured in Dulbecco’s Modified Eagle Medium (DMEM) supplemented with 10% FBS (Pan Biotech), 2 mM L-glutamine, 100 U/ml penicillin and 100 μg/ml streptomycin at 37°C and 5% CO2.
For fixing and permeabilization, HeLa cells were incubated with pre-warmed 4% formaldehyde for 20 min at 37°C, followed by permeabilization with 0.25% Triton-X 100 for 20 min at room temperature. For the evaluation of the effect of proteases, cOmplete protease inhibitor mix (1X) 500 μl was added to the fixed cells for 30 min. Peptides were incubated at 1 μM for 3 h in the presence of the protease inhibitor mix, followed by 3 min incubation with 1 μM of the nucleic acid marker DAPI, then extensively washed with DPBS and subjected to wide-field imaging.
(§2) Imaging was performed using an Olympus IX81 microscope with 20x and 60x UPLSAPO objectives and standard fluorescence filter sets.

A further series relates to living HeLa cells. The experiment in a line: Cell permeability in living HeLa cells, fluorescence microscopy. The format is cell-based. The procedure: as §1
To investigate the cell permeability of peptide 4, living HeLa cells were washed twice and incubated for 5 min with DPBS + Mg/Ca, ([…]) in a CO2 incubator. Cells were subsequently incubated in the presence of 10 μM of peptide 4 in DPBS + Mg/Cl for 5 min, followed by two washes with DPBS + Mg/Cl and final addition of HEPES-buffered imaging medium containing 0.5 μM propidium iodide.
as §2

Series [5] has as its target peptide 2 (stapled Nrf2-derived) (UniProt Q16236). The experiment in a line: fluorescence polarization. Conditions: FP: 50 mM Tris/HCl pH 7.5, 100 mM NaCl, 2 mM MgCl2, 0.5 mM EDTA, 10 ug/mL BSA, 0.1 mM DTT, 0.01% Tween-20, 10 nM DNA, 60 min RT; EMSA: 10 mM Tris pH 7.5, 100 mM.
Series [6] concerns the target peptide 1 (stapled Nrf2-derived) (UniProt Q16236). The experiment in a line: fluorescence polarization. As to conditions: FP: 50 mM Tris/HCl pH 7.5, 100 mM NaCl, 2 mM MgCl2, 0.5 mM EDTA, 10 ug/mL BSA, 0.1 mM DTT, 0.01% Tween-20, 10 nM DNA, 60 min RT; EMSA: 10 mM Tris pH 7.5, 100 mM.
The target of series [7] is peptide 5 (linear Nrf2-derived) (UniProt Q16236). The experiment in a line: fluorescence polarization. Conditions: FP: 50 mM Tris/HCl pH 7.5, 100 mM NaCl, 2 mM MgCl2, 0.5 mM EDTA, 10 ug/mL BSA, 0.1 mM DTT, 0.01% Tween-20, 10 nM DNA, 60 min RT; EMSA: 10 mM Tris pH 7.5, 100 mM.
Series [8] deals with peptide 3 (stapled Nrf2-derived) (UniProt Q16236). The experiment in a line: fluorescence polarization. Conditions: FP: 50 mM Tris/HCl pH 7.5, 100 mM NaCl, 2 mM MgCl2, 0.5 mM EDTA, 10 ug/mL BSA, 0.1 mM DTT, 0.01% Tween-20, 10 nM DNA, 60 min RT; EMSA: 10 mM Tris pH 7.5, 100 mM.
In series [9] the target is peptide 4 (stapled Nrf2-derived) (UniProt Q16236). The experiment in a line: fluorescence polarization. As to conditions: FP: 50 mM Tris/HCl pH 7.5, 100 mM NaCl, 2 mM MgCl2, 0.5 mM EDTA, 10 ug/mL BSA, 0.1 mM DTT, 0.01% Tween-20, 10 nM DNA, 60 min RT; EMSA: 10 mM Tris pH 7.5, 100 mM.
Another series concerns peptide 6 (scrambled). The experiment in a line: fluorescence polarization. Conditions: FP: 50 mM Tris/HCl pH 7.5, 100 mM NaCl, 2 mM MgCl2, 0.5 mM EDTA, 10 ug/mL BSA, 0.1 mM DTT, 0.01% Tween-20, 10 nM DNA, 60 min RT; EMSA: 10 mM Tris pH 7.5, 100 mM.

One may read the Kd as the concentration at which binding is half-saturated. A higher Kd goes with a looser complex. In the case of `CC[C@H](C)[C@H](NC(C)=O)C(=O)N[C@@H](CCCNC(=N)N)C(=O)N[C@@H](CCCNC(=N)N)C(=O)N[C@@H](CCCNC(=N)N)C(=O)N[C@]1(C)CCCCCCC=CCCC[C@@](C)(C(=O)N[C@@H](CC(N)=O)C(=O)N[C@@H](CS)C(=O)N[C@@H](CCCNC(=N)N)C(=O)N[C@@H](CCCCN)C(=O)N[C@@H](CCCNC(=N)N)C(=O)N[C@@H](CCCCN)C(N)=O)NC(=O)[C@H](C)NC(=O)[C@H](C)NC(=O)[C@H](C(C)C)NC(=O)[C@H](CCCCN)NC(=O)[C@H](CC(N)=O)NC(=O)[C@H](CCCCN)NC1=O` [compound 4] (Ac-IRRR[R8]KNKVAA[S5]NCRKRK-NH2; staple 5-12), the Kd in series [1] was 1200 ± 300 nM. Further, the “Helicity (calculated) / α-helical content” value in [2] is 18%. Further, in series [3], the “mobility shift of DNA” value is on record as “induce a mobility shift of DNA at a lower concentration than the unstapled peptide 5”.

For the compound “IRRRGKNKVAAQNCRKRK [FITC-5, linear peptide 5 with N-terminal FITC-GABA- label]”, the “enrichment in the nucleus” value in [4] (fixed (4% formaldehyde) and permeabilized (0.25% Triton-X 100) HeLa cells, DAPI co-stain) is reported as “no enrichment in the nucleus could be observed”. For the same compound, in series [4] (fixed and permeabilized HeLa cells, identical exposure times), the “amount of peptide detectable in cells” value was “only small amounts”.

As to `CC[C@H](C)[C@H](NC(C)=O)C(=O)N[C@@H](CCCNC(=N)N)C(=O)N[C@@H](CCCNC(=N)N)C(=O)N[C@@H](CCCNC(=N)N)C(=O)NCC(=O)N[C@@H](CCCCN)C(=O)N[C@@H](CC(N)=O)C(=O)N[C@@H](CCCCN)C(=O)N[C@]1(C)CCCC=CCCC[C@@](C)(C(=O)N[C@@H](CC(N)=O)C(=O)N[C@@H](CS)C(=O)N[C@@H](CCCNC(=N)N)C(=O)N[C@@H](CCCCN)C(=O)N[C@@H](CCCNC(=N)N)C(=O)N[C@@H](CCCCN)C(N)=O)NC(=O)[C@H](C)NC(=O)[C@H](C)NC1=O` [compound 3] (Ac-IRRRGKNK[R5]AA[S5]NCRKRK-NH2; staple 9-12), the Kd in series [1] is 1500 ± 200 nM. Moreover, the “Helicity (calculated) / α-helical content” value in [2] is listed as 36%.

As to `CC[C@H](C)[C@H](NC(=O)CCCNC(=S)Nc1ccc2c(c1)C(=O)OC21c2ccc(O)cc2Oc2cc(O)ccc21)C(=O)N[C@@H](CCCNC(=N)N)C(=O)N[C@@H](CCCNC(=N)N)C(=O)N[C@@H](CCCNC(=N)N)C(=O)N[C@]1(C)CCCCCCC=CCCC[C@@](C)(C(=O)N[C@@H](CC(N)=O)C(=O)N[C@@H](CS)C(=O)N[C@@H](CCCNC(=N)N)C(=O)N[C@@H](CCCCN)C(=O)N[C@@H](CCCNC(=N)N)C(=O)N[C@@H](CCCCN)C(N)=O)NC(=O)[C@H](C)NC(=O)[C@H](C)NC(=O)[C@H](C(C)C)NC(=O)[C@H](CCCCN)NC(=O)[C@H](CC(N)=O)NC(=O)[C@H](CCCCN)NC1=O` [FITC-4] ({FITC-GABA}-IRRR[R8]KNKVAA[S5]NCRKRK-NH2; staple 5-12), the “membrane permeability in living cells” value in the series with living HeLa cells (10 μM peptide in DPBS + Mg/Ca, 5 min, serum-free, washed, FITC fluorescence microscopy) is “high membrane permeability in living cells”. For the same compound, the “viability / membrane integrity of peptide-containing cells (propidium iodide)” value in the series on living HeLa cells (10 μM peptide, 0.5 μM propidium iodide in imaging medium) was “majority of peptide-containing cells were alive”.

In turn, “IRRRS5KNKS5AAQNCRKRK (sidechain bridge or staple) [compound 1, Nrf2-derived i,i+4 hydrocarbon stapled peptide (505/509), N-terminally acetylated, C-terminal amide]” registered a Kd in series [1] of 1600 ± 40 nM. Moreover, the “Helicity (calculated) / α-helical content” value in [2] is 20%.

With “CGGAATCAATGACTCATTGTTACTC (double strand) [MARE23]”, the Kd in series [5] was 3900 nM; in series [6], 1600 nM; in series [7], 7900 nM; in series [8], 1500 nM; in series [9], 1200 nM; in the series with peptide 6 (scrambled), 8100 nM.
